Results reported in patent US10624968B2, “Compounds for treating cancer” (Bicycle Therapeutics Limited, priority 2017, dated 2020).
Read-outs that look alike come from different tables or passages of the source. Non-standard residues stand in square brackets, D forms with d. Residues, ends and D or L forms follow the SMILES beside them. *: point of attachment. Dolaproine = CO[C@@H]([C@@H]1CCCN1)[C@@H](C)C(=O)O; Dil = CC[C@H](C)[C@H](NC)[C@@H](CC(=O)O)OC; X1 = C[C@@H](N*)[C@@H](O)c1ccccc1; NMeV = CN[C@H](C(=O)O)C(C)C

Legend:
HCC1806 = test: cells; conditions: for IC50: read-out: Re IC50
Text: (§1) Details of the initial cell plating procedure are described in Table 3.
(§2) Data Details for Tables 5 and 6. Inhibition %=(Max−Sample value)/(Max−Min)*100.
(§3) The IC50 curves were generated by 4 Parameter Logistic Model—Sigmoidal Dose-Response Model as follows: Y=Bottom+(Top−Bottom)/(1+10^((log EC50-X)*HillSlope)).

SNU-16 = test: cells; conditions: for IC50: read-out: Re IC50
Text: as §1, §2, §3

NCI-H1975 = test: cells; conditions: for IC50: read-out: Re IC50
Text: as §1, §2, §3

HT1080 = test: cells; conditions: for IC50: read-out: Re IC50
Text: as §1, §2, §3

HCT15 = test: cells; conditions: for IC50: read-out: Re IC50
Text: as §1, §2, §3

EBC-1 = test: cells; conditions: for IC50: read-out: Re IC50
Text: as §1, §2, §3

HT29 = test: cells; conditions: for IC50: read-out: Re IC50
Text: as §1, §2, §3

MDA-MB-231 = test: cells; conditions: for IC50: read-out: Re IC50
Text: as §1, §2, §3

PC-3 = test: cells; conditions: for IC50: read-out: Re IC50
Text: as §1, §2, §3

NCI-H292 = test: cells; conditions: for IC50: read-out: Re IC50
Text: as §1, §2, §3

MOLP-8 = test: cells; conditions: for IC50: read-out: Re IC50
Text: as §1, §2, §3

HT1080 cells [1] = test: HT1080 cytotoxicity (ATPLite) in presence or absence of excess binding or non-binding peptide; assay type: cell-based; conditions: for IC50: mean ± standard deviation
Protocol: The target dependence of cytotoxicity of I-1a in cell lines expressing or lacking MT1-MMP was assessed by measuring ATP levels in an endpoint assay after 24 hours exposure to toxin, in the presence or absence of an excess of binding peptide or non-binding control peptide.
HT1080 cells were seeded in 96 well plates (75 μL/well) and incubated overnight at 37° C.+5% CO2. The next day, peptides were prepared in buffer from a DMSO stock. 10 μL of buffer or peptide was added to the cells and incubated for 1 hour. Toxins were diluted in cell culture media and 15 μL/well was added to the cells (<0.5% final DMSO). Cells were approximately 30-50% confluent upon dosing. Plates were sealed with gas permeable seals and incubated for 24 hours at 37° C.+5% CO2. After 24 hours, media was removed, cells were washed with PBS and 100 μL fresh media was added per well. Cells were incubated for a further 48 hours at 37° C.+5% CO2.
ATPLite reagent (Perkin Elmer) was equilibrated to room temperate and reconstituted in buffer as per the manufacturer's instructions. 100 μL reagent was added per well. Plates were sealed and shaken gently for 20 minutes to ensure complete cell lysis before luminescence was read using a BMG Pherastar. […] Data was analyzed using GraphPad Prism. Non-linear regression fit was used to calculate an IC50 for each toxic agent: Y=Bottom+(Top−Bottom)/(1+10^((Log IC50-X)*HillSlope)).

HT1080 cells [2] = test: Cytotoxicity in HT1080 cells in presence and absence of 1 mM bacitracin (ATPlite, 24 hour exposure)
Protocol: HT1080 cells (ATCC, via LGC, BIC918) Maintained in EMEM media (Sigma M2279)+10% FBS (Sigma Code F7524)+4 mM L-Glu (Invitrogen Cat 25030-024)
I-1a and Toxins with Bacitracin—24 or 72 Hour Exposure in 96 Well Plates
DB seeded cells in normal media, 75 μL in 96 well clear plates, ˜24 hours previous.
HT1080—7.5 k cells/well: 50% confluent upon dosing.
Dilute in media 1:42.85=5 μL DMSO dilute+209 μL media=>use 15 μL per well
This gives a 5 μM top concentration for BDCs in assay
Add 10 µL of media±bacitracin (2 plates of each)−leave for 1 hr
(§4) Bacitracin=1 mM final concentration. This requires a 10 mM concentration with no DMSO.
Add 15 μL treatment per well as in Table 19, below.
Seal plates with gas permeable membrane and incubate at 37° C.
Washout HT1080 plates with 2×150 μL PBS at 24 h and add 100 μL fresh media
At t=72 h, equilibrate ATPlite reagent to room temperature. Add 10 ml buffer to each vial of lyophilized substrate. Add 100 μL reagent per well. Seal with PCR seal and cover to protect from light. Shake for 20 mins before reading luminescence

L540 cells = test: Cytotoxicity in L540 cells in presence and absence of 1 mM bacitracin (ATPlite, 72 hour exposure); assay type: cell-based
Protocol: L540 cells (DSMZ # ACC72, BIC5121), maintained in RPMI-1640 medium (Sigma # R8758)+20% heat-inactivated serum
L540—20 k cells/well: 40% confluent upon dosing.
as §4
Add 100 μL reagent per well. […] Shake for 20 mins before reading luminescence

11 tumor cell lines = test: 11 cancer cell line panel cytotoxicity, statements on the whole panel; conditions: 72 h, read-out: IC50 on all 11 tumor cell lines
Text: as §1, §2, §3

Compound `CC[C@H](C)[C@@H]([C@@H](CC(=O)N1CCC[C@H]1[C@H](OC)[C@@H](C)C(=O)N[C@H](C)[C@@H](O)c1ccccc1)OC)N(C)C(=O)[C@@H](NC(=O)[C@@H](NC)C(C)C)C(C)C` [MMAE, monomethyl auristatin E] (H-[NMeV]V[Dil][Dolaproine]-X1) has a Top inhibition% (HCC1806; HCC1806, 72 hours) of 91%, an IC50 (HCC1806; HCC1806, 72 hours) of 0.26 nM and a Top inhibition% (SNU-16; SNU-16, 72 hours) of 99%. For the same compound, the IC50 (SNU-16; SNU-16, 72 hours) was 0.18 nM, the Top inhibition% (NCI-H1975; NCI-H1975, 72 hours) was 65% and the IC50 (NCI-H1975; NCI-H1975, 72 hours) was 0.38 nM. The Top inhibition% (HT1080; HT1080, 72 hours) was 97%, the IC50 (HT1080; HT1080, 72 hours) was 0.68 nM and the Top inhibition% (HCT15; HCT15, 72 hours) was 100%. It also gave an IC50 (HCT15; HCT15, 72 hours) of 21.4 nM, a Top inhibition% (EBC-1; EBC-1, 72 hours) of 67% and an IC50 (EBC-1; EBC-1, 72 hours) of 0.35 nM. The Top inhibition% (HT29; HT29, 72 hours) was 81%, the IC50 (HT29; HT29, 72 hours) was 0.42 nM and the Top inhibition% (MDA-MB-231; MDA-MB-231, 72 hours) was 61%. It also gave an IC50 (MDA-MB-231; MDA-MB-231, 72 hours) of 0.62 nM, a Top inhibition% (PC-3; PC-3, 72 hours) of 58% and an IC50 (PC-3; PC-3, 72 hours) of 0.85 nM. The Top inhibition% (NCI-H292; NCI-H292, 72 hours) was 86%, the IC50 (NCI-H292; NCI-H292, 72 hours) was 0.34 nM and the Top inhibition% (MOLP-8; MOLP-8, 72 hours) was 93%. The IC50 (MOLP-8; MOLP-8, 72 hours) was 0.65 nM, the IC50 (HT1080 cells [1]; 24 hours exposure, No block, 3 repeats) was 0.06 nM and the Maximum kill (HT1080 cells [1]; +250 μM binding peptide) was 95%. It also gave an IC50 (HT1080 cells [1]; +250 μM binding peptide) of 0.05 nM, a Maximum kill (HT1080 cells [1]; +250 μM non-binding peptide) of 95% and an IC50 (HT1080 cells [1]; +250 μM non-binding peptide) of 0.05 nM. The Maximum kill (HT1080 cells [1]; No block, compared to a lysis control) was 95%, the IC50 (HT1080 cells [2]; read-out: IC50 with 1 mM bacitracin, 24 hour exposure, + 1 mM bacitracin (PDI inhibitor)) was 0.15 nM and the IC50 (HT1080 cells [2]; read-out: Standard IC50, 24 hour exposure (high MT1 expression), no block) was 0.083 nM. It also gave an IC50 (L540 cells; 72 hour exposure (low/no MT1 expression), no block, read-out: Standard IC50) of 0.49 nM and an IC50 (L540 cells; read-out: IC50 with 1 mM bacitracin, 72 hour exposure, + 1 mM bacitracin) of 0.28 nM.

`CCc1c2c(nc3ccc(O)cc13)-c1cc3c(c(=O)n1C2)COC(=O)[C@]3(O)CC` [SN38] gave a Top inhibition% (HCC1806; HCC1806, 72 hours) of 96%, an IC50 (HCC1806; Homo sapiens, HCC1806, 72 h) of 4.69 nM and an IC50 (SNU-16; Homo sapiens, SNU-16, 72 h) of 2.14 nM. The Top inhibition% (SNU-16; SNU-16, 72 hours) was 76%, the IC50 (NCI-H1975; Homo sapiens, NCI-H1975, 72 h) was 272 nM and the Top inhibition% (NCI-H1975; NCI-H1975, 72 hours) was 116%. For the same compound, the Top inhibition% (HT1080; HT1080, 72 hours) was 96%, the IC50 (HT1080; Homo sapiens, HT-1080, 72 h) was 1.35 nM and the Top inhibition% (HCT15; HCT15, 72 hours) was 80%. For the same compound, the IC50 (HCT15; Homo sapiens, HCT-15, 72 h) was 11.5 nM, the Top inhibition% (EBC-1; EBC-1, 72 hours) was 87% and the IC50 (EBC-1; Homo sapiens, EBC-1, 72 h) was 2.34 nM. For the same compound, the Top inhibition% (HT29; HT29, 72 hours) was 98%, the IC50 (HT29; Homo sapiens, HT-29, 72 h) was 23.7 nM and the IC50 (MDA-MB-231; Homo sapiens, MDA-MB-231, 72 h) was 25.1 nM. It also gave a Top inhibition% (MDA-MB-231; MDA-MB-231, 72 hours) of 78%, an IC50 (PC-3; Homo sapiens, PC-3, 72 h) of 48.7 nM and a Top inhibition% (PC-3; PC-3, 72 hours) of 78%. For the same compound, the IC50 (NCI-H292; Homo sapiens, NCI-H292, 72 h) was 3.48 nM, the Top inhibition% (NCI-H292; NCI-H292, 72 hours) was 92% and the IC50 (MOLP-8; Homo sapiens, MOLP-8, 72 h) was 3.59 nM. The Top inhibition% (MOLP-8; MOLP-8, 72 hours) was 88% and the IC50 (11 tumor cell lines) was less than 300 nM.
